From the SangsterLogP compilation come the findings set out here.

Assay in the first series: not given
Conditions: not given
As a reminder, the logP is the decadic logarithm of the partition coefficient of the neutral form, usually between octanol and water. A high value points to higher lipophilicity. Molecule `CCCc1nc(NCC(C)C)nc(N2CCOCC2)n1` gave a log partition coefficient (logP) of 2.65. In turn, `CCCCNc1nc(CCC)nc(N2CCOCC2)n1` yielded a logP of 2.78. Still for that read-out and setting: in the case of `C=CCCNc1nc(CCC)nc(N2CCOCC2)n1` it was 2.47; in that of `CCCc1nc(NCN(C)C)nc(N2CCOCC2)n1`, 1.94. Molecule `CCCc1nc(NC)nc(N2CCOCC2)n1` returned a logP of 2.02.

`CCCc1nc(N)nc(N2CCCCC2)n1`: the logP is 2.43.

The next series is described as follows: method code SF-HPLC, from DOI: 10.1016/s0223-5234(98)80011-1. As to conditions: pH 7.4.
One may read the logD as lipophilicity at a set pH, counting ionised and neutral species. Turning to `OC1CN(c2nc(CC3CC3)nc(NC3CC3)n2)C1`, the logD stood at 1.71. `CCCc1nc(NCCC(=O)N(C)C)nc(N2CCOCC2)n1` came in with a logD of 0.67.

In turn, `CCCc1nc(NC2CC2)nc(N2CCOCC2)n1` yielded a logD of 2.11.

`CCCCc1nc(NC2CC2)nc(N2CCOCC2)n1` gave a pH-dependent lipophilicity (logD) of 2.8. The same measure, in the same setting: the value for `C1CN(c2nc(CC3CC3)nc(NC3CC3)n2)CCO1` was 2.33; that for `CCCCc1nc(NC2CC2)nc(N2CC3CCC(C2)O3)n1` was 3.02; that for `C1CC(Cc2nc(NC3CC3)nc(N3CCOCC3)n2)C1` was 3.14. Same read-out and setting: the value for `CCCc1nc(NCc2ccccc2OC)nc(N2CCOCC2)n1` was 3.59; that for `CCCc1nc(NCN2CCCC2=O)nc(N2CCOCC2)n1` was 1.62. The same measure, in the same setting: the value for `C1CCC(Cc2nc(NC3CC3)nc(N3CCOCC3)n2)C1` was 3.6; that for `CCCc1nc(N)nc(N2CCOCC2)n1` was 1.55; that for `CCCc1nc(NCC)nc(N2CCCCC2)n1` was 3.34. As for `CCCc1nc(NC(=O)c2ccccc2)nc(N2CCOCC2)n1`, the pH-dependent lipophilicity (logD) is 2.33.

In turn, `CCCc1nc(NCC)nc(N2CCOCC2)n1` displayed a log distribution coefficient (logD) of 2.23. Same read-out and setting: the value for `COC1CN(c2nc(CC3CC3)nc(NC3CC3)n2)C1` was 2.37; that for `CCCCc1nc(NC2CC2)nc(N(CCO)CCO)n1` was 1.76; that for `O=S1CCN(c2nc(CC3CC3)nc(NC3CC3)n2)CC1` was 1.56.

In turn, `OCCN(CCO)c1nc(CC2CC2)nc(NC2CC2)n1` yielded a log distribution coefficient (logD) of 1.82.

For `C1CC1Cc1nc(NC2CC2)nc(N2CC3CCC(C2)O3)n1`, the logD was 3.07. Still for that read-out and setting: in the case of `Cc1nc(NC2CC2)nc(N2CC3CCC(C2)O3)n1` it was 1.84; in that of `CC(C)Cc1nc(NC2CC2)nc(N2CC3CCC(C2)O3)n1`, 3.34; in that of `O=S1(=O)CCN(c2nc(CC3CC3)nc(NC3CC3)n2)CC1`, 1.76. Still for that read-out and setting: the value for `CCCCc1nc(NC2CC2)nc(N2CC(O)C2)n1` was 1.61.
